Results on 16 compounds are retold here after publication PMC2615555 (Virology, 2008).

The target of one assay is T1, I-E^d (Mus musculus, UniProt P01904+P01915).
T1 sequence (P01904 26-255): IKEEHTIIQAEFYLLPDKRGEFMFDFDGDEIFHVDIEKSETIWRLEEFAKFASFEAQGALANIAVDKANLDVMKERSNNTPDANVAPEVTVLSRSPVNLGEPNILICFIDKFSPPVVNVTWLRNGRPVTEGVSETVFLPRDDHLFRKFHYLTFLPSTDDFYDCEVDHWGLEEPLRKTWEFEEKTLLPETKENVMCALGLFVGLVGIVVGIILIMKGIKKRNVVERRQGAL
T1 sequence (P01915 27-264 limits assumed): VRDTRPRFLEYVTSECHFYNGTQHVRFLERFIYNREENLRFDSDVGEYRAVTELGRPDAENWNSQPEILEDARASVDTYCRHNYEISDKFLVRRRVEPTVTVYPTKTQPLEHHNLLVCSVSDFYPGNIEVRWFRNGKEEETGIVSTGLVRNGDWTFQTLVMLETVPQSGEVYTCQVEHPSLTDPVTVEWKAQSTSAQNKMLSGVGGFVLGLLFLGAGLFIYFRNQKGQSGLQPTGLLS
Kind of assay: biochemical. The format is binding, BALB/c mouse.

The next assay has as its target T2, I-A^d (Mus musculus, UniProt P01921+P04228).
T2 sequence (P04228 24-256): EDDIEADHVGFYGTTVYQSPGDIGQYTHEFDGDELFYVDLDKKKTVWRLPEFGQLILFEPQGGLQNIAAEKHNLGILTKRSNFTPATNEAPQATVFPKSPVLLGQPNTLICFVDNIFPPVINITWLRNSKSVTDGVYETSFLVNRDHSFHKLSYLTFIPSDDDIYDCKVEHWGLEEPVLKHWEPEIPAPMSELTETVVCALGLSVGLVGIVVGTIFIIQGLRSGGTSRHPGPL
T2 sequence (P01921 28-265): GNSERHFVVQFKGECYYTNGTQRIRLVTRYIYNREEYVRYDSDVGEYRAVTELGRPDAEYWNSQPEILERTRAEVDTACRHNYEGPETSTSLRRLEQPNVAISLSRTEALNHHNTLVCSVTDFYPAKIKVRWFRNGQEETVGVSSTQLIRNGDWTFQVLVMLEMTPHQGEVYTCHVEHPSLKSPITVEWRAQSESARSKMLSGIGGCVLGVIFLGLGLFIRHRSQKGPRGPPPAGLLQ
Kind of assay: biochemical. The format is binding, BALB/c mouse.

Where [1] appears, read: Binding Assay IC50, I-A^d (membrane 15mers).
[2] abbreviates: Binding Assay IC50, I-A^d (envelope 15mers).

As a reminder, the IC50 is the concentration at which inhibition is half-maximal.

Consider `CC(C)C[C@H](NC(=O)CNC(=O)[C@H](Cc1c[nH]cn1)NC(=O)[C@H](CC(N)=O)NC(=O)[C@H](CCC(=O)O)NC(=O)[C@H](Cc1c[nH]cn1)NC(=O)[C@@H](NC(=O)[C@@H]1CCCN1)[C@@H](C)O)C(=O)N[C@@H](CCCCN)C(=O)N[C@H](C(=O)N[C@@H](CCCNC(=N)N)C(=O)N[C@@H](CCC(N)=O)C(=O)N[C@@H](CCC(=O)O)C(=O)N[C@@H](CCCCN)C(=O)N[C@@H](Cc1c[nH]c2ccccc12)C(=O)O)[C@@H](C)O` [M5–19], for which the IC50 is above 45 µM against I-E^d and 13.2 µM at I-A^d (setting [1]).

On I-A^d (setting [2]), `CC[C@H](C)[C@H](NC(=O)[C@H](CCCCN)NC(=O)[C@@H](N)[C@@H](C)O)C(=O)N[C@@H](CCC(N)=O)C(=O)N[C@@H](Cc1ccc(O)cc1)C(=O)N[C@H](C(=O)N[C@H](C(=O)N[C@@H](CCCNC(=N)N)C(=O)N[C@@H](C)C(=O)N[C@@H](CCC(N)=O)C(=O)N[C@@H](CC(C)C)C(=O)N[C@@H](Cc1c[nH]cn1)C(=O)N[C@H](C(=O)NCC(=O)N[C@@H](C)C(=O)O)C(C)C)[C@@H](C)CC)C(C)C` [E133–147] registered an IC50 below 1 µM.

On to `CC[C@H](C)[C@H](NC(=O)[C@H](CCCCN)NC(=O)[C@H](CCC(N)=O)NC(=O)[C@H](CC(C)C)NC(=O)[C@H](CCC(N)=O)NC(=O)[C@H](CCCNC(=N)N)NC(=O)[C@H](CCC(=O)O)NC(=O)CN)C(=O)N[C@@H](CCC(=O)O)C(=O)N[C@@H](CCCNC(=N)N)C(=O)N[C@@H](Cc1c[nH]c2ccccc12)C(=O)N[C@@H](Cc1ccccc1)C(=O)N[C@H](C(=O)N[C@@H](CCCNC(=N)N)C(=O)N[C@@H](CC(N)=O)C(=O)O)C(C)C` [M25–39], for which the IC50 is 13.2 µM at I-E^d and above 45 µM at I-A^d (setting [1]).

As for `CC[C@H](C)[C@H](NC(=O)[C@H](CCCCN)NC(=O)[C@H](CCC(N)=O)NC(=O)[C@@H](N)CC(C)C)C(=O)N[C@@H](CCC(=O)O)C(=O)N[C@@H](CCCNC(=N)N)C(=O)N[C@@H](Cc1c[nH]c2ccccc12)C(=O)N[C@@H](Cc1ccccc1)C(=O)N[C@H](C(=O)N[C@@H](CCCNC(=N)N)C(=O)N[C@@H](CC(N)=O)C(=O)N1CCC[C@H]1C(=O)N[C@@H](Cc1ccccc1)C(=O)N[C@@H](Cc1ccccc1)C(=O)N[C@@H](C)C(=O)O)C(C)C` [M29–43], the IC50 at I-E^d is 1.56 µM; on I-A^d (setting [1]), 0.593 µM.

With `CSCC[C@H](NC(=O)[C@H](Cc1c[nH]c2ccccc12)NC(=O)[C@H](CCCCN)NC(=O)[C@H](CCC(=O)O)NC(=O)[C@H](CCC(N)=O)NC(=O)[C@H](CCCNC(=N)N)NC(=O)[C@@H](NC(=O)[C@H](CCCCN)NC(=O)[C@H](CC(C)C)NC(=O)CNC(=O)[C@H](Cc1c[nH]cn1)NC(=O)[C@@H](N)CC(N)=O)[C@@H](C)O)C(=O)N[C@H](C(=O)NCC(=O)N[C@@H](CCCNC(=N)N)C(=O)O)[C@@H](C)O` [M9–23], the IC50 against I-E^d was above 45 µM; on I-A^d (setting [1]) it was 40.9 µM.

For the compound `CSCC[C@H](NC(=O)[C@H](CCCNC(=N)N)NC(=O)CNC(=O)[C@@H](NC(=O)[C@H](CCSC)NC(=O)[C@H](Cc1c[nH]c2ccccc12)NC(=O)[C@H](CCCCN)NC(=O)[C@H](CCC(=O)O)NC(=O)[C@H](CCC(N)=O)NC(=O)[C@H](CCCNC(=N)N)NC(=O)[C@@H](NC(=O)[C@@H](N)CCCCN)[C@@H](C)O)[C@@H](C)O)C(=O)NCC(=O)N[C@@H](CCC(=O)O)C(=O)N[C@@H](CCCNC(=N)N)C(=O)O` [M13–27], the figures for the IC50 against I-E^d and at I-A^d (setting [1]) were above 45 µM and 1.9 µM, respectively.

For the compound `CC[C@H](C)[C@H](NC(=O)[C@H](CCCCN)NC(=O)[C@@H](NC(=O)[C@H](CCC(N)=O)NC(=O)[C@H](CC(=O)O)NC(=O)[C@@H](NC(=O)[C@@H](N)CCC(=O)O)C(C)C)[C@@H](C)O)C(=O)N[C@@H](CCC(N)=O)C(=O)N[C@@H](Cc1ccc(O)cc1)C(=O)N[C@H](C(=O)N[C@H](C(=O)N[C@@H](CCCNC(=N)N)C(=O)N[C@@H](C)C(=O)N[C@@H](CCC(N)=O)C(=O)N[C@@H](CC(C)C)C(=O)O)[C@@H](C)CC)C(C)C` [E129–143], on I-A^d (setting [2]), the IC50 was below 1 µM.

As to `CC[C@H](C)[C@H](NC(=O)[C@@H](NC(=O)[C@H](CC(C)C)NC(=O)[C@H](C)NC(=O)[C@@H](NC(=O)[C@@H](NC(=O)[C@H](C)NC(=O)[C@H](Cc1ccccc1)NC(=O)[C@H](Cc1ccccc1)NC(=O)[C@@H]1CCCN1C(=O)[C@H](CC(N)=O)NC(=O)[C@H](CCCNC(=N)N)NC(=O)[C@@H](N)C(C)C)C(C)C)[C@@H](C)O)[C@@H](C)O)C(=O)N[C@@H](C)C(=O)N[C@@H](Cc1ccc(O)cc1)C(=O)O` [M37–51], the IC50 came to 1.92 µM on I-E^d and 0.04 µM on I-A^d (setting [1]).

In the case of `CC[C@H](C)[C@H](NC(=O)[C@@H](NC(=O)[C@H](CC(C)C)NC(=O)[C@H](C)NC(=O)[C@@H](N)[C@@H](C)O)[C@@H](C)O)C(=O)N[C@@H](C)C(=O)N[C@@H](Cc1ccc(O)cc1)C(=O)N[C@@H](CC(C)C)C(=O)N[C@H](C(=O)NCC(=O)N[C@@H](CO)C(=O)N[C@@H](CC(N)=O)C(=O)N[C@@H](CCSC)C(=O)N[C@H](C(=O)N[C@@H](CCC(N)=O)C(=O)O)[C@@H](C)O)C(C)C` [M45–59], the IC50 against I-E^d was above 45 µM; at I-A^d (setting [1]), 0.102 µM.

Turning to `CC[C@H](C)[C@H](NC(=O)[C@@H](NC(=O)[C@H](C)NC(=O)[C@H](C)NC(=O)[C@H](Cc1c[nH]cn1)NC(=O)[C@@H]1CCCN1C(=O)[C@@H]1CCCN1C(=O)[C@H](CCC(=O)O)NC(=O)[C@H](Cc1ccccc1)NC(=O)[C@@H](N)CCC(=O)O)[C@@H](C)O)C(=O)N[C@@H](CCCNC(=N)N)C(=O)N[C@H](C(=O)N[C@@H](CC(C)C)C(=O)N[C@@H](C)C(=O)N[C@@H](CC(C)C)C(=O)O)C(C)C` [E233–247], at I-E^d, the “Binding Assay IC50, I-E^d (envelope 15mers)” value is “high affinity”. The IC50 on I-A^d (setting [2]) was below 1 µM.

On to `CC[C@H](C)[C@H](NC(=O)[C@@H](NC(=O)[C@@H](NC(=O)[C@H](CCCNC(=N)N)NC(=O)[C@H](CCC(N)=O)NC(=O)[C@@H](NC(=O)[C@@H](N)CCSC)[C@@H](C)O)C(C)C)C(C)C)C(=O)N[C@@H](C)C(=O)N[C@@H](CC(C)C)C(=O)N[C@@H](CC(C)C)C(=O)N[C@H](C(=O)N[C@@H](CC(C)C)C(=O)N[C@@H](C)C(=O)N[C@H](C(=O)NCC(=O)O)C(C)C)C(C)C` [M57–71], for which the IC50 on I-E^d is above 45 µM; at I-A^d (setting [1]), 6.48 µM.

Regarding `CC[C@H](C)[C@H](NC(=O)CN)C(=O)N[C@@H](CC(N)=O)C(=O)N[C@H](C(=O)N[C@@H](CCCNC(=N)N)C(=O)N[C@@H](CC(N)=O)C(=O)N[C@@H](CCSC)C(=O)N[C@H](C(=O)N[C@@H](CCSC)C(=O)N[C@@H](CO)C(=O)N[C@@H](CCSC)C(=O)N[C@@H](CO)C(=O)N[C@@H](CCSC)C(=O)N[C@H](C(=O)N[C@@H](CC(C)C)C(=O)O)[C@@H](C)CC)[C@@H](C)O)[C@@H](C)O` [E465–479], the IC50 on I-A^d (setting [2]) was below 1 µM.

On to `CSCC[C@H](NC(=O)[C@H](CCCNC(=N)N)NC(=O)CNC(=O)[C@@H](NC(=O)[C@H](CCSC)NC(=O)[C@H](Cc1c[nH]c2ccccc12)NC(=O)[C@H](CCCCN)NC(=O)[C@@H](N)CCC(=O)O)[C@@H](C)O)C(=O)NCC(=O)N[C@@H](CCC(=O)O)C(=O)N[C@@H](CCCNC(=N)N)C(=O)N[C@@H](CCC(N)=O)C(=O)N[C@@H](CC(C)C)C(=O)N[C@@H](CCC(N)=O)C(=O)N[C@@H](CCCCN)C(=O)O` [M17–31], for which the IC50 against I-E^d stood at 20.7 µM; on I-A^d (setting [1]) it was 20.4 µM.

The compound `CC[C@H](C)[C@H](NC(=O)[C@@H](NC(=O)[C@H](C)NC(=O)[C@H](C)NC(=O)[C@H](Cc1c[nH]cn1)NC(=O)[C@@H]1CCCN1)[C@@H](C)O)C(=O)N[C@@H](CCCNC(=N)N)C(=O)N[C@H](C(=O)N[C@@H](CC(C)C)C(=O)N[C@@H](C)C(=O)N[C@@H](CC(C)C)C(=O)NCC(=O)N[C@@H](CC(N)=O)C(=O)N[C@@H](CCC(N)=O)C(=O)N[C@@H](CCC(=O)O)C(=O)O)C(C)C` [E237–251] showed an IC50 on I-A^d (setting [2]) below 1 µM.

For `CSCC[C@H](NC(=O)[C@H](CC(C)C)NC(=O)[C@H](CO)NC(=O)[C@H](C)NC(=O)[C@@H](NC(=O)[C@@H](NC(=O)[C@H](CCCNC(=N)N)NC(=O)[C@H](CCCCN)NC(=O)[C@@H](NC(=O)[C@H](CCCCN)NC(=O)[C@H](CCCNC(=N)N)NC(=O)[C@H](CC(C)C)NC(=O)[C@@H](NC(=O)[C@H](C)NC(=O)[C@@H](N)CC(C)C)C(C)C)C(C)C)C(C)C)C(C)C)C(=O)O` [C77–91], the “Binding Assay IC50, I-A^d (capsid 15mers)” value on I-A^d was “high affinity”.

In the case of `CSCC[C@H](NC(=O)[C@H](CC(C)C)NC(=O)[C@H](CO)NC(=O)[C@H](C)NC(=O)[C@@H](NC(=O)[C@@H](NC(=O)[C@H](CCCNC(=N)N)NC(=O)[C@H](CCCCN)NC(=O)[C@@H](NC(=O)[C@H](CCCCN)NC(=O)[C@@H](N)CCCNC(=N)N)C(C)C)C(C)C)C(C)C)C(=O)N[C@@H](CCCNC(=N)N)C(=O)NCC(=O)N[C@@H](CC(C)C)C(=O)N[C@@H](CO)C(=O)O` [C81–95], on I-A^d, the “Binding Assay IC50, I-A^d (capsid 15mers)” value is given as “high affinity”.
